What was measured:
mushroom tyrosinase [1] = test: Mushroom tyrosinase inhibition assay (L-DOPA substrate, DOPA chrome at 470 nm); format: biochemical; conditions: 37 °C, 30 min, pH 6.8, triplicate
Experimental: The tyrosinase inhibition assay was achieved according to a previously described method. Both the enzyme (tyrosinase, EC 1.14.18.1) and substrate (L-3,4-dihydroxyphenylalanine) (L-DOPA) were purchased from Sigma-Aldrich. All test compounds were first dissolved in 5% dimethyl sulfoxide (DMSO) (80 μL), and the tyrosinase inhibitory activity was evaluated at various concentrations (5 to 200 μM). The reaction mixture consisted of 40 μL of tyrosinase solution (125 unit/mL in 67 mM phosphate buffer, pH 6.8), 40 μL of L-DOPA (25 mM in 67 mM phosphate buffer, pH 6.8), and 80 μL of the test sample. After incubation at 37 °C for 30 min, the amount of released DOPA chrome was measured at 470 nm using an ELISA reader (Infinite F200, Tecan Austria GmBH, Grodig, Austria). The tyrosinase inhibition (%) was calculated, and the half-maximal inhibitory concentration (IC50) was evaluated using linear regression analysis of the inhibitory effects under the assay conditions. […] All assays were carried out in triplicate. Kinetic parameters were determined using the Lineweaver-Burk plots methods at increasing concentration of substrates and inhibitor. The data was calculated using Sigma-plot (SPCC Inc., Chicago, IL, USA).

mushroom tyrosinase [2] = test: Inhibition kinetics of tyrosinase-mediated L-DOPA oxidation (Lineweaver-Burk plots); format: biochemical
From the text: Tyrosinase is a metalloenzyme that plays a primary role in the production of melanin from tyrosine when the skin is exposed to UV rays. Tyrosinase-related protein-1 (TRP-1) and dopachrome tautomerase (TRP-2) result in the formation of melanin as eumelanin (which appears black and brown) and pheomelanin (which appears yellow and red). Tyrosinase is present in epidermal melanocytes as well as in the pigment epithelia of the retina, iris, and ciliary body of the eye, and is one of the chief enzymes responsible for skin pigmentation in mammals. Melanin production can be inhibited by suppressing tyrosinase activity, thereby preventing the induction of melasma, freckles, and senile […]. […] Radiocatalytic hydrogenated molecules 1–4 obtained in the present study were evaluated for their inhibitory capacities toward mushroom tyrosinase. […]
The tyrosinase inhibition assay was achieved according to a previously described method. […] All test compounds were first dissolved in 5% dimethyl sulfoxide (DMSO) (80 μL), and the tyrosinase inhibitory activity was evaluated at various concentrations (5 to 200 μM). […] After incubation at 37 °C for 30 min, the amount of released DOPA chrome was measured at 470 nm using an ELISA reader (Infinite F200, Tecan Austria GmBH, Grodig, Austria). […] The data was calculated using Sigma-plot (SPCC Inc., Chicago, IL, USA).

Row | Structure (SMILES) | IC50 (mushroom tyrosinase [1]) [µM] | Inhibition Type (mushroom tyrosinase [2]) | Ki (mushroom tyrosinase [2]) [µM]
1 | C[C@]1(CO)c2ccc(O)cc2OC(=O)[C@H]1CO (relative stereo) [Compound 2, Radiocoumarone B] | 49 ± 1.3 | – | –
2 | O=C1Oc2cc(O)ccc2[C@@](CO)(CCO)[C@@H]1CO (relative stereo) [Compound 3, Radiocoumarone C] | 254.6 ± 2.1 | – | –
3 | C[C@]1([C@@]2(C)c3ccc(O)cc3OC(=O)[C@H]2CO)c2ccc(O)cc2OC(=O)[C@H]1CO (relative stereo) [Compound 4, Radiocoumarone D] | 19.8 ± 0.5 | Non-competitive | 16
4 | C[C@@]1(CO)CC(=O)Oc2cc(O)ccc21 (stereo in doubt) [Compound 1, Radiocoumarone A] | 143 ± 1.5 | – | –
5 | Cc1cc(=O)oc2cc(O)ccc12 [4-MUF (5), 4-methylumbelliferone, reference compound] | > 500 | – | –
